Columns and labels:
[1] = Human metabolic stability half-life assay; format: in vitro ADME; conditions: pH 7.4; human liver microsomes, NADPH, 0.5 μM compound, 45-minute time course; read-out: HLM (t1/2, min)
From the text: Metabolic Stability Half-Life Panel

human Notch 1 = test: Notch-CBF1 Transactivation Assay (Notch 1); format: cell-based; conditions: read-out: Notch 1 (IC50); HeLa cells transfected with truncated Notch 1 and CBF1 luciferase reporter; 18 hours; average of N experiments
From the text: (§1) Notch-CBF1 Transactivation Assay
(§2) The Notch-CBF1 (C-promoter binding factor I) cell based transactivation assay is based on the ability of the released Notch intracellular domain fragments (NICDs) to function as transcription factors in conjunction with CBF1 and other nuclear factors. Luciferase assays were used to measure the antagonism of Notch-CBF1 transcriptional activity. HeLa cervical cancer cells are transiently co-transfected with pCDNA3.1/Hygro plasmids containing truncated Notch 1, Notch 2, Notch 3, or Notch 4 receptors and a PGL3 luciferase reporter vector containing 4 copies of CBF1 binding site. The cells were then tested for Notch-CBF1 activity in the absence or presence of test compounds. HeLa cells, maintained in DMEM (high glucose with HEPES), 1× glutamine/penicillin/streptomycin and 10% Fetal Bovine serum, were transiently transfected in a T175 Flask (4.5×10^6 cells/flask) using the Monster Transfection Kit (Minis #MIR2906) according to manufacturers specifications. Table 5 denotes respective DNA quantity for the transfections.
(§3) Assay media (5 μL) containing test compounds in final concentrations ranging from 5 μM to 8.4×10^−5 μM (3 fold serial dilutions) were added to the cells and the cell plates were then incubated for 18 hours at 37° C. and 5% CO2. Control wells contained DMSO vehicle (total counts) or 0.5 μM of an in-house small molecule inhibitor (background counts). Duplicates were used for each sample. Luciferase activity was measured after a 20-minute incubation with 50 μl STEADY-GLO® luciferase reagents according to manufacturer's specifications (Promega, Cat. #E2550) and analyzed by Envision plate reader (PerkinElmer, Boston, Mass.).
(§4) The antagonist effect of compounds was expressed as 100×[1−(average sample−average background)/(average total−average background)] where sample is the luciferase activity in the presence of test compound, background is equal to the luciferase activity in the presence of the small molecule inhibitor control and the total is signal induced in DMSO wells.

TALL-1 = test: Human Tumor Xenograft Models in Mice (TALL-1); format: in vivo
Procedure: Human Tumor Xenograft Models in Mice
Mice were fed food and water ad libitum.
When death occurred, the day of death was recorded.

human Notch 3 = test: Notch-CBF1 Transactivation Assay (Notch 3); format: cell-based; conditions: read-out: Notch 3 (IC50); HeLa cells transfected with truncated Notch 3 and CBF1 luciferase reporter; 18 hours; average of N experiments
From the text: as §1, §2, §3, §4

Compound | half-life at 0.5 µM [1] | IC50 (human Notch 1) | antitumor activity with oral administration (PO) (TALL-1; Human Tumor Xenograft Models in mice, oral) | Antitumor Activity in TALL-1 (LCK) BID dosing (TALL-1; Oral Administration, Dose 10, Schedule BIDx10, LCK = Log Cell Kill, NOD-SCID mice) | IC50 (human Notch 3)
Cc1cccc2c1NC(=O)[C@@H](NC(=O)[C@H](CCC(F)(F)F)[C@H](CC1CC(F)(F)C1)C(N)=O)N=C2c1ccccc1 [Example 1, (2R,3S)-3-((3,3-Difluorocyclobutyl)methyl)-N-((3S)-9-methyl-2-oxo-5-phenyl-2,3-dihydro-1H-1,4-benzodiazepin-3-yl)-2-(3,3,3-trifluoropropyl)succinamide] | 60 min | 3 nM | showed antitumor activity | 2.7 | 2.4 nM
NC(=O)[C@@H](C1CC(F)(F)C1)[C@@H](CCC(F)(F)F)C(=O)N[C@H]1N=C(c2ccccc2)c2ccccc2NC1=O [Example 6] | > 120 min | 14 nM | – | – | 18.9 nM
Cc1cccc2c1NC(=O)[C@@H](NC(=O)[C@H](CCC(F)(F)F)[C@H](CC1CC(F)(F)C1)C(N)=O)N=C2c1cccc(F)c1 [Example 9, (2R,3S)-3-((3,3-Difluorocyclobutyl)methyl)-N-((3S)-5-(3-fluorophenyl)-9-methyl-2-oxo-2,3-dihydro-1H-1,4-benzodiazepin-3-yl)-2-(3,3,3-trifluoropropyl)succinamide] | 91 min | 3.5 nM | – | – | 3.2 nM
NC(=O)[C@@H](CC1CC(F)(F)C1)[C@@H](CCC(F)(F)F)C(=O)N[C@H]1N=C(c2ccccc2)c2cccc(OC3CC3)c2NC1=O [Example 7, (2R,3S)—N-((3S)-9-(Cyclopropyloxy)-2-oxo-5-phenyl-2,3-dihydro-1H-1,4-benzodiazepin-3-yl)-3-((3,3-difluorocyclobutyl)methyl)-2-(3,3,3-trifluoropropyl)succinamide] | > 120 min | 3.9 nM | – | – | 2.1 nM
NC(=O)[C@@H](CC1CC(F)(F)C1)[C@@H](CCC(F)(F)F)C(=O)N[C@H]1N=C(c2ccccc2)c2ccccc2NC1=O [Example 15, (2R,3S)-3-((3,3-Difluorocyclobutyl)methyl)-N-((3S)-2-oxo-5-phenyl-2,3-dihydro-1H-1,4-benzodiazepin-3-yl)-2-(3,3,3-trifluoropropyl)succinamide] | 35 min | 4.4 nM | – | – | 3.8 nM
NC(=O)[C@@H](CC1CC(F)(F)C1)[C@@H](CCC(F)(F)F)C(=O)N[C@H]1N=C(c2ccccc2)c2cccc(F)c2NC1=O [Example 14, (2R,3S)-3-((3,3-Difluorocyclobutyl)methyl)-N-((3S)-9-fluoro-2-oxo-5-phenyl-2,3-dihydro-1H-1,4-benzodiazepin-3-yl)-2-(3,3,3-trifluoropropyl)succinamide] | > 120 min | 4.5 nM | – | – | 1.4 nM
Cc1cccc(C2=N[C@H](NC(=O)[C@H](CCC(F)(F)F)[C@H](CC3CC(F)(F)C3)C(N)=O)C(=O)Nc3c(Cl)cccc32)c1 [Example 10, (2R,3S)—N-((3S)-9-Chloro-5-(3-methylphenyl)-2-oxo-2,3-dihydro-1H-1,4-benzodiazepin-3-yl)-3-((3,3-difluorocyclobutyl)methyl)-2-(3,3,3-trifluoropropyl)succinamide] | 69 min | 1.7 nM | – | – | 4.4 nM
CC(F)(F)CC[C@H](C(N)=O)[C@@H](CCC(F)(F)F)C(=O)N[C@H]1N=C(c2ccccc2)c2cccc(Cl)c2NC1=O [Example 24, (2R,3S)—N-((3S)-9-Chloro-2-oxo-5-phenyl-2,3-dihydro-1H-1,4-benzodiazepin-3-yl)-3-(3,3-difluorobutyl)-2-(3,3,3-trifluoropropyl)succinamide] | > 120 min | 3.9 nM | – | – | 5.4 nM
C[C@@H](C[C@H](C(N)=O)[C@@H](CCC(F)(F)F)C(=O)N[C@H]1N=C(c2ccccc2)c2cccc(Cl)c2NC1=O)C(F)(F)F [Example 23, (2R,3S)—N-((3S)-9-Chloro-2-oxo-5-phenyl-2,3-dihydro-1H-1,4-benzodiazepin-3-yl)-3-((2S)-3,3,3-trifluoro-2-methylpropyl)-2-(3,3,3-trifluoropropyl)succinamide] | 111 min | 5.1 nM | – | – | 3.2 nM
COc1cccc2c1NC(=O)[C@@H](NC(=O)[C@H](CCC(F)(F)F)[C@H](CCC(C)(F)F)C(N)=O)N=C2c1ccccc1 [Example 21] | 76 min | 7.5 nM | – | – | 13.8 nM
COc1cccc2c1NC(=O)[C@@H](NC(=O)[C@H](CCC(F)(F)F)[C@H](CCCF)C(N)=O)N=C2c1ccccc1 [Example 16, (2R,3S)-3-(3-Fluoropropyl)-N-((3S)-9-methoxy-2-oxo-5-phenyl-2,3-dihydro-1H-1,4-benzodiazepin-3-yl)-2-(3,3,3-trifluoropropyl)succinamide] | 88 min | 7 nM | – | – | 15.4 nM

— US9427442B2, “Fluoroalkyl and fluorocycloalkyl 1,4-benzodiazepinone compounds” (BRISTOL-MYERS SQUIBB COMPANY, priority 2012, dated 2016)
